Measured values taken from PubChem BioAssay (NCI).
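Test compounds were applied to cells in 96-well plates for 48 hours at 5 doses. Abbreviation: GI50, concentration required for 50% inhibition of growth. TGI: concentration producing complete growth inhibition.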

What was measured:
Test in all cases: NCI tumour cell line growth inhibition, 48 h
[1] = system: T-47D breast
[2] = system: HCT-15 colon
[3] = system: OVCAR-8 ovarian
[4] = system: SN12C renal
[5] = system: LOX IMVI melanoma
[6] = system: SF-295 CNS
[7] = system: 786-0 renal
[8] = system: TK-10 renal
[9] = system: HCC-2998 colon
[10] = system: HOP-92 NSCLC
[11] = system: HCT-116 colon
[12] = system: SK-OV-3 ovarian
[13] = system: NCI/ADR-RES ovarian
[14] = system: A498 renal
[15] = system: MOLT-4 leukemia
[16] = system: OVCAR-5 ovarian
[17] = system: MALME-3M melanoma
[18] = system: HT29 colon
[19] = system: CAKI-1 renal
[20] = system: DU-145 prostate
[21] = system: OVCAR-4 ovarian
[22] = system: SF-539 CNS
[23] = system: UO-31 renal
[24] = system: OVCAR-3 ovarian
[25] = system: SW-620 colon
[26] = system: NCI-H226 lung
[27] = system: SK-MEL-5 melanoma
[28] = system: HS 578T breast
[29] = system: BT-549 breast
[30] = system: PC-3 prostate
[31] = system: CCRF-CEM leukemia
[32] = system: COLO 205 colon
[33] = system: KM12 colon
[34] = system: SR leukemia
[35] = system: RXF 393 renal
[36] = system: NCI-H460 lung
[37] = system: UACC-257 melanoma
[38] = system: HOP-62 NSCLC
[39] = system: SK-MEL-2 melanoma
[40] = system: ACHN renal
[41] = system: MDA-MB-231 breast
[42] = system: MDA-MB-435
[43] = system: SF-268 CNS
[44] = system: UACC-62 melanoma
[45] = system: MCF7 breast
[46] = system: A549 NSCLC
[47] = system: SNB-75 CNS
[48] = system: HL-60(TB) leukemia
[49] = system: IGROV1 ovarian
[50] = system: NCI-H522 lung
[51] = system: M14 melanoma
[52] = system: SK-MEL-28 melanoma
[53] = system: SNB-19 CNS
[54] = system: K-562 leukemia
[55] = system: NCI-H23 lung
[56] = system: RPMI-8226 leukemia
[57] = system: U251 CNS

OCc1ccc(N(Cc2ccc(F)cc2)CC2CC2)cc1Cl was tested, and the GI50 [1] was 0.271 µM, the TGI [1] was 2.86 µM and the GI50 [2] was 10.3 µM. For the same compound, the TGI [2] was 22.9 µM, the GI50 [3] was 11.8 µM and the TGI [3] was 25.3 µM. For the same compound, the GI50 [4] was 9.04 µM, the TGI [4] was 21.8 µM and the GI50 [5] was 13.2 µM. For the same compound, the TGI [5] was 26.3 µM, the GI50 [6] was 1.2 µM and the TGI [6] was 11.7 µM. For the same compound, the GI50 [7] was 6.8 µM, the TGI [7] was 21.3 µM and the GI50 [8] was 0.0609 µM. For the same compound, the TGI [8] was 0.398 µM, the GI50 [9] was 8.82 µM and the TGI [9] was 22.4 µM. It also gave a GI50 [10] of 1.61 µM, a TGI [10] of 11.3 µM and a GI50 [11] of 0.254 µM. The TGI [11] was 11 µM, the GI50 [12] was 10.6 µM and the TGI [12] was 22.7 µM. For the same compound, the GI50 [13] was 12.1 µM, the TGI [13] was 28.8 µM and the GI50 [14] was 0.0363 µM. It also gave a TGI [14] of 0.154 µM, a GI50 [15] of 13.7 µM and a TGI [15] of 34.9 µM. For the same compound, the GI50 [16] was 0.191 µM, the TGI [16] was 0.794 µM and the GI50 [17] was 14.6 µM. The TGI [17] was 29.9 µM, the GI50 [18] was 6.49 µM and the TGI [18] was 20.3 µM. It also gave a GI50 [19] of 6.54 µM, a TGI [19] of 21.9 µM and a GI50 [20] of 13.3 µM. The TGI [20] was 26.4 µM, the GI50 [21] was 0.511 µM and the TGI [21] was 7.34 µM. The GI50 [22] was 14.7 µM, the TGI [22] was 28.2 µM and the GI50 [23] was 3.43 µM. For the same compound, the TGI [23] was 15.6 µM, the GI50 [24] was 1.31 µM and the TGI [24] was 4.94 µM. The GI50 [25] was 2.38 µM, the TGI [25] was 16.2 µM and the GI50 [26] was 0.0419 µM. The TGI [26] was 0.0943 µM, the GI50 [27] was 3.72 µM and the TGI [27] was 16.6 µM. It also gave a GI50 [28] of 14.7 µM, a TGI [28] of 38.9 µM and a GI50 [29] of 14.3 µM. For the same compound, the TGI [29] was 28.2 µM, the GI50 [30] was 12.1 µM and the TGI [30] was 25.7 µM. The GI50 [31] was 15.6 µM, the TGI [31] was 39.9 µM and the GI50 [32] was 5.4 µM. For the same compound, the TGI [32] was 17.4 µM, the GI50 [33] was 12.9 µM and the TGI [33] was 25.8 µM. The GI50 [34] was 13.4 µM, the TGI [34] was 34 µM and the GI50 [35] was 1.29 µM. It also gave a TGI [35] of 8.48 µM, a GI50 [36] of 0.57 µM and a TGI [36] of 9.47 µM. The GI50 [37] was 0.228 µM, the TGI [37] was 1.03 µM and the GI50 [38] was 3.09 µM. The TGI [38] was 16.2 µM, the GI50 [39] was 5.39 µM and the TGI [39] was 19 µM. For the same compound, the GI50 [40] was 11.7 µM, the TGI [40] was 24 µM and the GI50 [41] was 11.5 µM. It also gave a TGI [41] of 24.3 µM, a GI50 [42] of 15.7 µM and a TGI [42] of 31.2 µM. The GI50 [43] was 14.7 µM, the TGI [43] was 28.7 µM and the GI50 [44] was 0.263 µM. The TGI [44] was 1.74 µM, the GI50 [45] was 0.585 µM and the TGI [45] was 12.6 µM. The GI50 [46] was 3.16 µM, the TGI [46] was 16.9 µM and the GI50 [47] was 10.8 µM. It also gave a TGI [47] of 23.1 µM, a GI50 [48] of 5.06 µM and a TGI [48] of 26.3 µM. For the same compound, the GI50 [49] was 0.176 µM, the TGI [49] was 1.19 µM and the GI50 [50] was 11.5 µM. It also gave a TGI [50] of 26.3 µM, a GI50 [51] of 14.5 µM and a TGI [51] of 29.8 µM. The GI50 [52] was 13.1 µM, the TGI [52] was 25.9 µM and the GI50 [53] was 12.3 µM. It also gave a TGI [53] of 25.4 µM, a GI50 [54] of 3.12 µM and a TGI [54] of 17.8 µM. It also gave a GI50 [55] of 4.74 µM, a TGI [55] of 20.2 µM and a GI50 [56] of 5.47 µM. For the same compound, the TGI [56] was 36 µM, the GI50 [57] was 1.48 µM and the TGI [57] was 14 µM.
